Laboratory results taken from patent US20260199325A1, “NOVEL SUBSTITUTED PYRAZINE-CARBOXAMIDE-IMIDAZOPYRIDINE DERIVATIVES” (Boehringer Ingelheim International GmbH, priority 2022, published 2026).

These molecules were tested against T1, human metabotropic Glutamate 4 receptor (Homo sapiens, UniProt Q14833) (assay: In vitro testing of mGluR4 potency (Assay A), cAMP HTRF in HEK293 cells). Settings: Table 2; HEK293 cell overexpressing human mGluR4; 10 uM L-Glutamic acid, 1 uM forskolin.
T1 construct: expressed in transfected cells; host or cells: HEK293
T1 sequence (Q14833 33-912): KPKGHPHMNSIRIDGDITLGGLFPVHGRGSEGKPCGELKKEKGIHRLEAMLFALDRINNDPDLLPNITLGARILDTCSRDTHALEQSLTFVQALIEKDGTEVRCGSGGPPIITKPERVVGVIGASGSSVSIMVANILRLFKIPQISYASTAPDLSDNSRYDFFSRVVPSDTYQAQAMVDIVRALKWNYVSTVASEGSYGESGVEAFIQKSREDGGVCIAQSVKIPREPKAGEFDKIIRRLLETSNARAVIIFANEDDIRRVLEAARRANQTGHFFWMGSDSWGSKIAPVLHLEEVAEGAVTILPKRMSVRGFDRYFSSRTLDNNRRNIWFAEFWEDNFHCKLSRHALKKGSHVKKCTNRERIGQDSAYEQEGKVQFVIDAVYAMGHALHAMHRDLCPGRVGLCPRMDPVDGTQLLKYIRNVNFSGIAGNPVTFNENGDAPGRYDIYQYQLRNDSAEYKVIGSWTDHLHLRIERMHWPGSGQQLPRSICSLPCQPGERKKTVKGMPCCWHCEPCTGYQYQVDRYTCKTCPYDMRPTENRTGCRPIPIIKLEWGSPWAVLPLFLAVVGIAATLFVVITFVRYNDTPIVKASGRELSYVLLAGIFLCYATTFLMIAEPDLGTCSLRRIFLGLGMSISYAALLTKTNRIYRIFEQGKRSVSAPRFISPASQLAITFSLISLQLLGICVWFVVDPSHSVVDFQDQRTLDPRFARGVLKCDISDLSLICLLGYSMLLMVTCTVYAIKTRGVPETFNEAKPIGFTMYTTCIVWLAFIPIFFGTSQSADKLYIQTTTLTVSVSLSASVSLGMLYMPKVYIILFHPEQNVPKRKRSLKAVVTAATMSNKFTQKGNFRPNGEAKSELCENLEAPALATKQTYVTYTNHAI
Format: cell-based
Method: A. In Vitro Testing of mGluR4 Potency
The in vitro activity of the compounds according to the invention may be investigated as follows:
The HEK293 cell overexpressing the human metabotropic Glutamate 4 receptor were thawed at 37° C. and immediately diluted with cell culture medium. After centrifugation, the cell pellet is re-suspended in medium and then distributed from a stirred spinner flask into the wells of the assay plate. The plates are incubated for one hour at room temperature before they are incubated for 24 hours at 37° C./5% C02. After washing the cells in the plate three times with 80 uL HBSS/HEPES buffer (10 uL buffer remained in the wells after washing), 5 uL per well of compounds diluted in HBSS/HEPES buffer containing 0.2% BSA (final concentration: 0.1%) and 1 mM IBMX (final concentration: 0.5 mM) are added to the wells of the assay plate. Thereafter 5 uL per well of L-Glutamic acid (final concentration: 10 uM), forskolin (final concentration: 1 uM) and 1 mM IBMX (final concentration: 0.5 mM) dissolved in HBSS/HEPES buffer containing 0.2% BSA (final concentration: 0.1%) are added to the assay plate (final DMSO concentration: 1%). Several wells of the assay plate are used either for the positive and the negative controls or for the cAMP standard curve. The assay plate is incubated for 30 minutes at room temperature. Then 5 ul per well of Anti-cAMP-Antibody-d2 solution and 5 ul per well of cAMP-Europium Cryptate dilution are added to all wells of the plate and the plate is incubated another 60 minutes light protected at room temperature. The emission at 615 nm and 665 nm (Excitation wavelength: 320 nm) are measured on the EnVision™ reader (PerkinElmer). The ratio between the emission at 665 nm and 615 is calculated by the reader. The whole assay is performed in the dark or under green light.
The cAMP standard is prepared by diluting the cAMP stock solution with HBSS/Hepes buffer: 5 μl/well of the cAMP dilutions (in HBSS/Hepes buffer containing 1 mM IBMX and 0.2% BSA-final concentration: 0.5 mM IBMX and 0.1% BSA) are added to 10 ul/well HBSS/Hepes buffer plus 5 ul/well 4% DMSO in HBSS/Hepes containing 0.2% BSA (final DMSO concentration: 1%-like in the wells containing compounds) in the wells of the assay plate. The final cAMP concentrations in the assay plate were: 0, 0.17, 0.69, 2.78, 11.1, 44.5, 178, and 712 nM (two wells/cAMP concentration).
Each assay microtiter plate contained also wells with vehicle controls instead of compound as controls for L-Glutamic acid induced signal (negative control; 100% CTL; 10 uM L-Glutamic acid+1 uM forskolin+0.5 mM IBMX+1% DMSO) and wells with vehicle controls without L-Glutamic acid as controls for non-specific changes in signal (positive control; 0% CTL; 0 uM L-Glutamic acid+1 uM forskolin+0.5 mM IBMX+1% DMSO).
The analysis of the data is performed by the calculation the ratio between the emission at 665 nm and the emission at 615 nm (Em665/Em615 ratio). Thereafter the signals of the compounds are normalized using the positive and negative controls by the following formula:
PoC=100×((Signal Sample−Positive Control)/(Negative Control−Positive Control))

Point of comparison: `O=C(N[C@H](c1nc2cnc(C(F)(F)F)cc2n1CC(F)F)C1CC1)c1cnc(C(F)F)cn1` [Example 46, N-[(S)-cyclopropyl[1-(2,2-difluoroethyl)-6-(trifluoromethyl)-1H-imidazo[4,5-c]pyridin-2-yl]methyl]-5-(difluoromethyl)pyrazine-2-carboxamide], IC50 41 nM. Against it:
- Cc1c(C#N)cnc2c1nc([C@@H](NC(=O)c1cnc(C(F)F)cn1)C1(O)CCC1)n2C(C)C [Example 26, N-[(R)-[6-cyano-7-methyl-3-(propan-2-yl)-3H-imidazo[4,5-b]pyridin-2-yl](1-hydroxycyclobutyl)methyl]-5-(difluoromethyl)pyridazine-2-carboxamide] — 3.2-fold lower, 13 nM
- COC(C)(C)[C@H](NC(=O)c1cnc(C)cn1)c1nc2cccnc2n1C(C)C [Example 37, N-[(1R)-2-methoxy-2-methyl-1-[3-(propan-2-yl)-3H-imidazo[4,5-b]pyridin-2-yl]propyl]-5-methylpyrazine-2-carboxamide] — 2.2-fold lower, 19 nM
- Cc1cnc(C(=O)N[C@H](c2nc3c(C)c(C#N)cnc3n2C(C)C)C2CCC2)cn1 [Example 15, N-[(S)-[6-cyano-7-methyl-3-(propan-2-yl)-3H-imidazo[4,5-b]pyridin-2-yl](cyclobutyl)methyl]-5-methylpyrazine-2-carboxamide] — 6.8-fold lower, 6 nM
- COc1c(C#N)cnc2c1nc([C@@H](NC(=O)c1cnc(C)cn1)C1CC1)n2C(C)C [Example 31] — 2.9-fold lower, 14 nM
- Cc1cnc(C(=O)N[C@H](c2nc3ccc(C(F)(F)F)nc3n2C(C)C)C2CC2)cn1 [Example 8, N-[(S)-cyclopropyl[3-(propan-2-yl)-5-(trifluoromethyl)-3H-imidazo[4,5-b]pyridin-2-yl]methyl]-5-methylpyrazine-2-carboxamide] — 14-fold lower, 3 nM
- CC(C)n1c([C@@H](NC(=O)c2cnc(C(F)F)cn2)C2CC2)nc2cc(C(F)(F)F)ncc21 [Example 27, N-[(S)-cyclopropyl[3-(propan-2-yl)-6-(trifluoromethyl)-3H-imidazo[4,5-c]pyridin-2-yl]methyl]-5-(difluoromethyl)pyrazine-2-carboxamide] — within 1.5-fold, 31 nM
- COC(C)(C)[C@H](NC(=O)c1cnc(C)cn1)c1nc2cc(Cl)cnc2n1C(C)C [Example 9, N-[(1R)-1-[6-chloro-3-(propan-2-yl)-3H-imidazo[4,5-b]pyridin-2-yl]-2-methoxy-2-methylpropyl]-5-methylpyrazine-2-carboxamide] — 14-fold lower, 3 nM
- CC(C)n1c([C@@H](NC(=O)c2cnc(C(F)F)cn2)C2CCC2)nc2cc(C#N)cnc21 [Example 30, N-[(S)-[6-cyano-3-(propan-2-yl)-3H-imidazo[4,5-b]pyridin-2-yl](cyclobutyl)methyl]-5-(difluoromethyl)pyrazine-2-carboxamide] — 2.9-fold lower, 14 nM
- Cc1cnc(C(=O)N[C@@H](C[C@@H]2CCCO2)c2nc3c(C)c(C#N)cnc3n2C(C)C)cn1 [Example 38, N-[(1S)-1-[6-cyano-7-methyl-3-(propan-2-yl)-3H-imidazo[4,5-b]pyridin-2-yl]-2-[(2S)-oxolan-2-yl]ethyl]-5-methylpyrazine-2-carboxamide] — 2.2-fold lower, 19 nM
- Cc1c(C#N)cnc2c1nc([C@H](CC1CC1)NC(=O)c1cnc(C(F)F)cn1)n2C(C)C [Example 11, N-[(1S)-1-[6-cyano-7-methyl-3-(propan-2-yl)-3H-imidazo[4,5-b]pyridin-2-yl]-2-cyclopropylethyl]-5-(difluoromethyl)pyrazine-2-carboxamide] — 10-fold lower, 4 nM
- Cc1cnc(C(=O)N[C@H](c2nc3cc(Cl)cnc3n2C(C)C)[C@@H]2CCCO2)cn1 [Example 41, N-[(R)-[6-chloro-3-(propan-2-yl)-3H-imidazo[4,5-b]pyridin-2-yl][(2S)-oxolan-2-yl]methyl]-5-methylpyrazine-2-carboxamide] — 2-fold lower, 21 nM
- Cc1cnc(C(=O)N[C@H](c2nc3cc(Cl)cnc3n2C(C)C)[C@H]2CCCO2)cn1 [Example 34, N-[(R)-[6-chloro-3-(propan-2-yl)-3H-imidazo[4,5-b]pyridin-2-yl][(2R)-oxolan-2-yl]methyl]-5-methylpyrazine-2-carboxamide] — 2.6-fold lower, 16 nM
- Cc1cnc(C(=O)N[C@@H](CC2CC2)c2nc3cc(C#N)c(C)nc3n2C(C)C)cn1 [Example 33, N-[(1S)-1-[6-cyano-5-methyl-3-(propan-2-yl)-3H-imidazo[4,5-b]pyridin-2-yl]-2-cyclopropylethyl]-5-methylpyrazine-2-carboxamide] — 2.7-fold lower, 15 nM
- Cc1cnc(C(=O)N[C@H](c2nc3cc(Cl)cnc3n2C(C)C)C2CC2)cn1 [Example 10, N-[(S)-[6-chloro-3-(propan-2-yl)-3H-imidazo[4,5-b]pyridin-2-yl](cyclopropyl)methyl]-5-methylpyrazine-2-carboxamide] — 10-fold lower, 4 nM
- Cc1c(C#N)cnc2c1nc([C@@H](NC(=O)c1cnc(C(F)F)cn1)[C@@H]1CCCO1)n2C(C)C [Example 36, N-[(R)-[6-cyano-7-methyl-3-(propan-2-yl)-3H-imidazo[4,5-b]pyridin-2-yl][(2S)-oxolan-2-yl]methyl]-5-(difluoromethyl)pyrazine-2-carboxamide] — 2.3-fold lower, 18 nM
- CO[C@H](C)[C@H](NC(=O)c1cnc(C(F)F)cn1)c1nc2cc(C(F)(F)F)cnc2n1C(C)C [Example 24, 5-(difluoromethyl)-N-[(1R)-2-methoxy-1-[3-(propan-2-yl)-6-(trifluoromethyl)-3H-imidazo[4,5-b]pyridin-2-yl]propyl]pyrazine-2-carboxamide] — 4.1-fold lower, 10 nM
- Cc1c(C#N)cnc2c1nc([C@@H](NC(=O)c1cnc(C(F)F)cn1)C1CCC1)n2C(C)C [Example 7, N-[(S)-[6-cyano-7-methyl-3-(propan-2-yl)-3H-imidazo[4,5-b]pyridin-2-yl](cyclobutyl)methyl]-5-(difluoromethyl)pyrazine-2-carboxamide] — 14-fold lower, 3 nM
- COC(C)(C)[C@H](NC(=O)c1cnc(C(F)F)cn1)c1nc2c(C)c(C#N)cnc2n1C(C)C [Example 1, N-[(1R)-1-[6-cyano-7-methyl-3-(propan-2-yl)-3H-imidazo[4,5-b]pyridin-2-yl]-2-methoxy-2-methylpropyl]-5-(difluoromethyl)pyrazine-2-carboxamide] — 41-fold lower, 1 nM
- Cc1cnc(C(=O)N[C@H](c2nc3cc(C(F)(F)F)cnc3n2C(C)C)C2CC2)cn1 [Example 3, N-[(S)-cyclopropyl[3-(propan-2-y1)-6-(trifluoromethyl)-3H-imidazo[4,5-b]pyridin-2-y1]methyl]-5-methylpyrazine-2-carboxamide] — 20-fold lower, 2 nM
- Cc1cnc(C(=O)N[C@H](c2nc3c(C)nc(C(F)(F)F)cc3n2CC(F)F)C2CC2)cn1 [Example 39, N-[(S)-cyclopropyl[1-(2,2-difluoroethyl)-4-methyl-6-(trifluoromethyl)-1H-imidazo[4,5-c]pyridin-2-yl]methyl]-5-methylpyrazine-2-carboxamide] — 2-fold lower, 21 nM
- CO[C@H](C)[C@H](NC(=O)c1cnc(C)cn1)c1nc2cc(C(F)(F)F)cnc2n1C(C)C [Example 12, N-[(1R,2R)-2-methoxy-1-[3-(propan-2-yl)-6-(trifluoromethyl)-3H-imidazo[4,5-b]pyridin-2-yl]propyl]-5-methylpyrazine-2-carboxamide] — 10-fold lower, 4 nM
- Cc1c(C#N)cnc2c1nc([C@@H](NC(=O)c1cnc(C(F)F)cn1)[C@H]1CCCO1)n2C(C)C [Example 17, N-[(R)-[6-cyano-7-methyl-3-(propan-2-yl)-3H-imidazo[4,5-b]pyridin-2-yl][(2R)-oxolan-2-yl]methyl]-5-(difluoromethyl)pyrazine-2-carboxamide] — 5.9-fold lower, 7 nM
- CO[C@H](C)[C@H](NC(=O)c1cnc(C)cn1)c1nc2c(C)c(C#N)cnc2n1C(C)C [Example 42, N-[(1R,2R)-1-[6-cyano-7-methyl-3-(propan-2-yl)-3H-imidazo[4,5-b]pyridin-2-yl]-2-methoxypropyl]-5-methylpyrazine-2-carboxamide] — 2-fold lower, 21 nM
